The record followed here is patent publication US20200002377A1, “COMPOUNDS USEFUL FOR THE TREATMENT AND/OR CARE OF THE SKIN, HAIR, NAILS AND/OR MUCOUS MEMBRANES” (LUBRIZOL ADVANCED MATERIALS, INC., priority 2016, published 2020).

Residues, ends and D or L forms follow the SMILES beside them. *: point of attachment. Palmitoyl = CCCCCCCCCCCCCCCC(=O)*; NHhexadecyl = CCCCCCCCCCCCCCCCN*; Myristoyl = CCCCCCCCCCCCCC(=O)*; NHHex = CCCCCCN*

Series [1] concerns Staphylococcus epidermidis. Kind of series: Adherence of Staphylococcus epidermidis in keratinocytes (HaCaT) in competition with S. aureus bioparticles. The class given is cell-based. Particulars: 50 μg/ml, 24 h, basal = 0. As to the method: After that treatment, cells are washed with phosphate-buffered saline (PBS, Sigma) and are then incubated with a solution of Staphylococcus epidermidis (ATCC®12228™, Culture Collections) treated with green-fluorescence calcein AM (Life technologic) and Alexa Fluor 594™ Bioparticles Staphylococcus aureus (ThermoFisher) in PBS for 30 minutes at 37° C. and protected from light. At the end of the incubation period, cells are washed with PBS and fixed in 4% (v/v) paraformaldehyde (PFA, Sigma) for 30 minutes. After rinsing with PBS, the nuclei are stained with Hoechst 33342, trihydrochloride trihydrate (ThermoFisher) in PBS for 10 minutes before analysis.
Cellular imaging is performed by fluorescence microscopy using the Operetta® High Content Imaging System (PerkinElmer). From each fluorescence image, Staphylococcus epidermidis is quantified as a number of spots and normalized against the number of keratinocyte nuclei and the total bacteria number (understood as the addition of detected S. epidermidis spots and S. aureus bioparticles). Each value obtained is normalized respect to basal conditions (non-treated keratinocytes). An image is taken in three different fields per well. 12 representative images from each condition are analyzed with Harmony software (PerkinElmer).
The normalized percentage of Staphylococcus epidermidis respect to basal conditions in treated keratinocytes is represented in Table 17.

Series [2] concerns Nuclear Factor Kappa B subunit 1 (NFKB1). Kind of series: Innate immune response gene expression in HEKa, real time PCR array. Type of series: cell-based, human. Particulars: 50 μg/ml, 24 h. In general terms: Real-time PCR tracks product formation cycle by cycle.
Procedure: HEKa cells (Life Technologies) are seeded at 6.0×10^5 cells/well in 6-well plates and incubated in culture medium Epillfe™ with defined Growth Supplement (EDGS, Life Technologies), at 37° C. in a water-saturated atmosphere of 95% air and 5% CO2. After 24 hours of incubation under these conditions, medium is removed and cells are incubated with 50 μg/ml (w/v) of a peptide of the invention (see Table 16) in fresh culture medium keeping two wells where HEKa cells are incubated with medium only (basal conditions) at 37° C. and 5% CO2.
After 24 h of incubation, the cells are lysed directly in the wells following the protocol described on the RNeasy™ Mini kit (Qiagen) according to the manufacturer's protocol. The lysed cells are homogenized and the RNases are inactivated. The genomic DNA is removed from the samples by using gDNA Eliminator spin columns (Qiagen). Then the samples are passed through special RNA binding columns (Qiagen) and, after several microcentrifugation washes to eliminate contaminants and impurities, the purified RNA is eluted with 50 μl of ultrapure water. Quantification and analysis of purity of RNA samples are performed after RNA elution with a biophotometer (Eppendorf). 1 μg of high-quality RNA is retrotranscribed with iScript™ advanced (BioRad) in a final volume of 20 μl·Complete reaction mix is incubated in a thermal cycler (Eppendorf) at 42° C. for 30 minutes, and the reactions are stopped at 85° C. for 5 minutes. Complementary DNA is amplified by qPCR in a real-time PCR thermocycler (BioRad) using SYBR®Green supermix (BioRad) and a customized plate for use with SYBR®Green (BioRad). SYBR®Green binds to double-stranded DNA molecules and emits fluorescence which is quantified and is proportional to the amount of the product in the PCR reaction. Cycling conditions in BioRad CFX96™ instrument are 95° C. for 3 minutes, followed by 40 cycles of denaturing at 95° C. for 5 seconds, annealing and elongation at 60° C. for 30 seconds. GAPDH (Glyceraldehyde 3-phosphate dehydrogenase), TBP (TATA box binding protein) and HRPT1 (hypoxanthine phosphoribosyltransferase 1) are used as endogenous controls. Fold change relative to the expression of the sample genes and reference genes is calculated using normalized expression (ΔΔ(Ct)) method with default threshold values using CFX Manager Software (BioRad).
Genes analyzed are Chemokine (C-C motif) Ligand 5 (CCL5), Myeloid Differentiation primary response gene 88 (MyD88), Nuclear Factor Kappa B subunit 1 (NFKB1) and interferon Regulatory Factor 3 (IRF3).

`CCCCCCCCCCCCCC(=O)N[C@@H](CCC(=O)O)C(=O)N[C@@H](CCC(=O)O)C(=O)N[C@@H](CCSC)C(=O)N[C@@H](CCC(N)=O)C(=O)N[C@@H](CCCNC(=N)N)C(=O)N[C@@H](CCCNC(=N)N)C(N)=O` [PEP-5, Myr-Glu-Glu-Met-Gln-Arg-Arg-NH2] (Myristoyl-EEMQRR-NH2): the “S. epidermidis (%), normalized percentage respect to basal conditions” value in series [1] was 27.52%. Further, in series [2], the “NFKB1 fold induction respect to basal conditions” value turned out to be 2.64.
The matching figures for `CCCCCCCCCCCCCCCC(=O)N[C@@H](CCC(=O)O)C(=O)N[C@@H](CCC(=O)O)C(=O)N[C@@H](CCSC)C(=O)N[C@@H](CCC(N)=O)C(=O)N[C@@H](CCCNC(=N)N)C(=O)N[C@@H](CCCNC(=N)N)C(N)=O` [PEP-6, Palm-Glu-Glu-Met-Gln-Arg-Arg-NH2] (Palmitoyl-EEMQRR-NH2): 29.75% and 2.62.
The matching figures for `CCCCCCCCCCCCCCCCNC(=O)[C@H](CCCNC(=N)N)NC(=O)[C@H](CCCNC(=N)N)NC(=O)[C@H](CCC(N)=O)NC(=O)[C@H](CCSC)NC(=O)[C@H](CCC(=O)O)NC(=O)[C@H](CCC(=O)O)NC(C)=O` [PEP-7, Ac-Glu-Glu-Met-Gln-Arg-Arg-NHC16H33] (Ac-EEMQRR-NHhexadecyl): 11.43% and 3.09.
Turning to `CCCCCCCCCCCCCCCC(=O)N[C@@H](CCC(=O)O)C(=O)N[C@@H](CCC(=O)O)C(=O)N[C@@H](CCSC)C(=O)N[C@@H](CCC(N)=O)C(=O)N[C@@H](CCCNC(=N)N)C(=O)N[C@@H](CCCNC(=N)N)C(=O)N[C@@H](C)C(=O)N[C@@H](CC(=O)O)C(N)=O` [PEP-27, Palm-Glu-Glu-Met-Gln-Arg-Arg-Ala-Asp-NH2] (Palmitoyl-EEMQRRAD-NH2), in series [1], the “S. epidermidis (%), normalized percentage respect to basal conditions” value is 27.62%. The “NFKB1 fold induction respect to basal conditions” value in series [2] came out at 2.76.
The matching figures for `CCCCCCCCCCCCCCCC(=O)N[C@@H](CCC(=O)O)C(=O)N[C@@H](CCC(=O)O)C(=O)N[C@@H](CCSC)C(=O)N[C@@H](CCC(N)=O)C(=O)N[C@@H](CCCNC(=N)N)C(=O)N[C@@H](CCCNC(=N)N)C(=O)N[C@@H](C)C(=O)N[C@@H](CC(N)=O)C(N)=O` [PEP-28, Palm-Glu-Glu-Met-Gln-Arg-Arg-Ala-Asn-NH2] (Palmitoyl-EEMQRRAN-NH2): 39.68% and 2.65.
The matching figures for `CCCCCCCCCCCCCC(=O)N[C@@H](CCC(=O)O)C(=O)N[C@@H](CCC(=O)O)C(=O)N[C@@H](CCSC)C(=O)N[C@@H](CCC(N)=O)C(=O)N[C@@H](CCCNC(=N)N)C(=O)N[C@@H](CCCNC(=N)N)C(=O)N[C@@H](C)C(=O)N[C@@H](CCC(=O)O)C(N)=O` [PEP-29, Myr-Glu-Glu-Met-Gln-Arg-Arg-Ala-Glu-NH2] (Myristoyl-EEMQRRAE-NH2): 33.02% and 2.72.
As to `CCCCCCCCCCCCCCCC(=O)N[C@@H](CCC(=O)O)C(=O)N[C@@H](CCC(=O)O)C(=O)N[C@@H](CCSC)C(=O)N[C@@H](CCC(N)=O)C(=O)N[C@@H](CCCNC(=N)N)C(=O)N[C@@H](CCCNC(=N)N)C(=O)N[C@@H](C)C(=O)N[C@@H](CC(N)=O)C(=O)O` [PEP-33, Palm-Glu-Glu-Met-Gln-Arg-Arg-Ala-Asn-OH] (Palmitoyl-EEMQRRAN-OH), in series [1], the “S. epidermidis (%), normalized percentage respect to basal conditions” value is listed as 58.74%. For the same compound, the “NFKB1 fold induction respect to basal conditions” value in series [2] is 2.63.
The matching figures for `CCCCCCNC(=O)[C@H](CC(=O)O)NC(=O)[C@H](C)NC(=O)[C@H](CCCNC(=N)N)NC(=O)[C@H](CCCNC(=N)N)NC(=O)[C@H](CCC(N)=O)NC(=O)[C@H](CCSC)NC(=O)[C@H](CCC(=O)O)NC(=O)[C@H](CCC(=O)O)NC(C)=O` [PEP-34, Ac-Glu-Glu-Met-Gln-Arg-Arg-Ala-Asp-NHC6H13] (Ac-EEMQRRAD-NHHex): 61.59% and 2.59.
On to `CCCCCCCCCCCCCCCCNC(=O)[C@H](CC(=O)O)NC(=O)[C@H](C)NC(=O)[C@H](CCCNC(=N)N)NC(=O)[C@H](CCCNC(=N)N)NC(=O)[C@H](CCC(N)=O)NC(=O)[C@H](CCSC)NC(=O)[C@H](CCC(=O)O)NC(=O)[C@H](CCC(=O)O)NC(C)=O` [PEP-35, Ac-Glu-Glu-Met-Gln-Arg-Arg-Ala-Asp-NHC16H33] (Ac-EEMQRRAD-NHhexadecyl), for which the “S. epidermidis (%), normalized percentage respect to basal conditions” value in series [1] worked out at 90.22%. Moreover, the “NFKB1 fold induction respect to basal conditions” value in series [2] amounted to 2.79.
For the compound `CCCCCCNC(=O)[C@H](CC(=O)O)NC(=O)[C@H](C)NC(=O)[C@H](CCCNC(=N)N)NC(=O)[C@H](CCCNC(=N)N)NC(=O)[C@H](CCC(N)=O)NC(=O)[C@H](CCSC)NC(=O)[C@H](CCC(=O)O)NC(=O)[C@@H](N)CCC(=O)O` [PEP-36, H-Glu-Glu-Met-Gln-Arg-Arg-Ala-Asp-NHC6H13] (H-EEMQRRAD-NHHex), the “S. epidermidis (%), normalized percentage respect to basal conditions” value in series [1] was determined as 29.93%. Also, the “NFKB1 fold induction respect to basal conditions” value in series [2] was determined as 2.53.
As for `CCCCCCCCCCCCCCCC(=O)N[C@@H](CCC(=O)O)C(=O)N[C@@H](CCC(=O)O)C(=O)N[C@@H](CCSC)C(=O)N[C@@H](CCC(N)=O)C(=O)N[C@@H](CCCNC(=N)N)C(=O)N[C@@H](Cc1c[nH]cn1)C(N)=O` [PEP-58, Palm-Glu-Glu-Met-Gln-Arg-His-NH2] (Palmitoyl-EEMQRH-NH2), the “NFKB1 fold induction respect to basal conditions” value in series [2] is given as 1.87.
Regarding `CCCCCCCCCCCCCCCC(=O)N[C@@H](CCC(=O)O)C(=O)N[C@@H](CCC(=O)O)C(=O)N[C@@H](CCSC)C(=O)N[C@@H](CCC(N)=O)C(=O)N[C@@H](CCCNC(=N)N)C(=O)N[C@@H](CCCCN)C(N)=O` [PEP-59, Palm-Glu-Glu-Met-Gln-Arg-Lys-NH2] (Palmitoyl-EEMQRK-NH2), the “S. epidermidis (%), normalized percentage respect to basal conditions” value in series [1] is listed as 4.63%. Moreover, the “NFKB1 fold induction respect to basal conditions” value in series [2] is 1.77.
The matching figures for `CCCCCCCCCCCCCC(=O)N[C@@H](CCC(=O)O)C(=O)N[C@@H](CCC(=O)O)C(=O)N[C@@H](CCSC)C(=O)N[C@@H](CCC(N)=O)C(=O)N[C@@H](CCCNC(=N)N)C(=O)N[C@@H](CCCCN)C(N)=O` [PEP-60, Myr-Glu-Glu-Met-Gln-Arg-Lys-NH2] (Myristoyl-EEMQRK-NH2): 24.84% and 1.26.
`CCCCCCNC(=O)[C@H](CCCNC(=N)N)NC(=O)[C@H](CCCNC(=N)N)NC(=O)[C@H](CCC(N)=O)NC(=O)[C@H](CCSC)NC(=O)[C@H](CCC(=O)O)NC(=O)[C@H](CCC(=O)O)NC(C)=O` [PEP-64, Ac-Glu-Glu-Met-Gln-Arg-Arg-NHC6H13] (Ac-EEMQRR-NHHex): in series [2], the “NFKB1 fold induction respect to basal conditions” value was found to be 1.75.
For the compound `CCCCCCNC(=O)[C@H](CCCNC(=N)N)NC(=O)[C@H](CCCNC(=N)N)NC(=O)[C@H](CCC(N)=O)NC(=O)[C@H](CCSC)NC(=O)[C@H](CCC(=O)O)NC(=O)[C@@H](N)CCC(=O)O` [PEP-65, H-Glu-Glu-Met-Gln-Arg-Arg-NCH6H13] (H-EEMQRR-NHHex), the “NFKB1 fold induction respect to basal conditions” value in series [2] worked out at 2.41.
With “Ac-DEMERRA-NH2 [PEP-40, Ac-Asp-Glu-Met-Glu-Arg-Arg-Ala-NH2]”, in series [1], the “S. epidermidis (%), normalized percentage respect to basal conditions” value is 20.56%. Further, the “NFKB1 fold induction respect to basal conditions” value in series [2] worked out at 2.55.
The matching figures for “Ac-DEMQRR-NH2 [PEP-51, Ac-Asp-Glu-Met-Gln-Arg-Arg-NH2]”: 65.15% and 2.41.
On to “Ac-DEMQRRAD-NH2 [PEP-8, Ac-Asp-Glu-Met-Gln-Arg-Arg-Ala-Asp-NH2]”, for which the “S. epidermidis (%), normalized percentage respect to basal conditions” value in series [1] worked out at 20.45%. Besides, the “NFKB1 fold induction respect to basal conditions” value in series [2] came to 2.04.
For the compound “Ac-EDMQRR-NH2 [PEP-49, Ac-Glu-Asp-Met-Gln-Arg-Arg-NH2]”, the “S. epidermidis (%), normalized percentage respect to basal conditions” value in series [1] stood at 5.86%. In addition, the “NFKB1 fold induction respect to basal conditions” value in series [2] is given as 1.55.
The matching figures for “Ac-EEIERR-NH2 [PEP-55, Ac-Glu-Glu-Ile-Glu-Arg-Arg-NH2]”: 2.41% and 3.39.
With “Ac-EELQRR-OH [PEP-63, Ac-Glu-Glu-Leu-Gln-Arg-Arg-OH]”, the “NFKB1 fold induction respect to basal conditions” value in series [2] turned out to be 1.50.
On to “Ac-EEMQRH-NH2 [PEP-53, Ac-Glu-Glu-Met-Gln-Arg-His-NH2]”, for which, in series [2], the “NFKB1 fold induction respect to basal conditions” value amounted to 3.37.
With “Ac-EEMQRRAE-OH [PEP-30, Ac-Glu-Glu-Met-Gln-Arg-Arg-Ala-Glu-OH]”, in series [2], the “NFKB1 fold induction respect to basal conditions” value is given as 2.53.
The same measure, in the same setting: as for “Ac-EEMQRRV-NH2 [PEP-44, Ac-Glu-Glu-Met-Gln-Arg-Arg-Val-NH2]”, the figure is 1.24.
Regarding “Ac-Glu-Glu-Leu-Gln-Arg-Arg-NH2 (Ac-EELQRR-NH2) [PEP-66]”, the “S. epidermidis (%), normalized percentage respect to basal conditions” value in series [1] is reported as 45.38%.
Turning to “Ac-QEMQRR-NH2 [PEP-52, Ac-Gln-Glu-Met-Gln-Arg-Arg-NH2]”, the “NFKB1 fold induction respect to basal conditions” value in series [2] is given as 2.57.
On to “H-EEMQRRAN-NH2 [PEP-25, H-Glu-Glu-Met-Gln-Arg-Arg-Ala-Asn-NH2]”, for which the “NFKB1 fold induction respect to basal conditions” value in series [2] was determined as 2.31.
For “H-Glu-Glu-Met-Gln-Arg-Arg-NHC16H33 (H-EEMQRR-NHhexadecyl) [PEP-67]”, the “S. epidermidis (%), normalized percentage respect to basal conditions” value in series [1] amounted to 14.91%.
